Data reported in patent publication US10648917B2, “Luminescent compositions and applications thereof” (THE PENN STATE RESEARCH FOUNDATION, priority 2015, dated 2020).

assay: Fluorescence spectra, absorbance and quantum yield (spectrofluorometer, integration sphere); assay type: physicochemical; details: CFD dyes
Experimental: Fluorescence spectra were recorded by a Horiba FluoroMax-4 spectrofluorometer. All polymer and small molecule samples were measured at a concentration of 2% w/w in 1,4-dioxane or DI water and a slit size of 1 nm by 1 nm unless otherwise specified. Quantum yields were also determined on the same spectrofluorometer by using a Quantum-φ integration sphere at the same concentration and slit size with the blank solvent as the reference. ^1H-NMR, ^13C-NMR were performed on a JNM ECS 300 spectrometer using DMSO-d6 or D2O as solvents. Attenuated total reflection Fourier transform infrared (ATR-FTIR) spectra were collected with a Bruker V70 spectrometer using BPLP films. A Shimadzu HPLC-MS system with a Phenomenex Kinetex 2.6u XB-C18 100 mm×2.9 mm column, a SPD M20A PDA detector and a RF-20AXS fluorescence detector (Ex. 360 nm and Em. 430 nm) was used to characterize the structures of fluorophores as well. The mobile phase was a gradient of DI water and acetonitrile with 0-6 min 2% acetonitrile, 6-12 min 2%-30% acetonitrile, and 12-15 min 2% acetonitrile. The flow rate was 0.15 ml/min. Electrospray ionization mass spectroscopy (ESI-MS) was performed with a positive voltage of 4.5 kV and negative mode voltage −4.0 kV and a CDL temperature of 200° C. The analysis of the degradation products of BPLPs were conducted by immersing BPLPs in 1M K2CO3 solution at 37° C. for 24 hours. After degradation, the solutions were neutralized by 1N HCl solution to pH 7 and characterized by HPLC-MS as described above.
Fluorescence spectra were recorded by a Horiba FluoroMax-4 spectrofluorometer. All samples were measured at a concentration corresponding to an optical density of 0.1 in water and a slit size of 1 nm by 1 nm unless specified. Quantum yields were also determined on same spectrofluorometer by using a Quantum-φ integration sphere at samples' maximum excitation wavelength and at an increment of 0.3 nm. Photostability studies were done by continuously exciting samples at their maximum excitation wavelength and monitoring at the maximum emission wavelength.
Fluorescence spectra were recorded on a Horiba FluoroMax-4 spectrofluorometer (Horiba Scientific, Edison N.J.). All polymer and samples were characterized at a concentration of 2 wt % in 1,4-dioxane and a slit size of 1 nm by 1 nm unless otherwise specified. The fluorescence properties of small molecule dyes were also measure in 2 wt % DI water solutions at same conditions as polymer solutions. BPLPs were also degraded in 1M K2CO3 solution at 37° C. for 24 hours and then neutralized with 1N HCl solution to pH7. The resulting degradation solutions were subject to further PL characterizations. Quantum yields were also determined on the same spectrofluorometer by using a Quantum-φ integration sphere (Horiba Scientific, Edison N.J.) at the same concentration and slit size with the blank solvent as the reference. Photostability of small molecules and polymers were determined by monitoring the emission intensity decay at their max. Excitation and emission wavelengths over 3 hours of continuous lumination in the spectrofluorometer.
Absorbance Spectra were recorded on Tecan Infinite M200 Pro UV-vis spectroscopy, and fluorescence spectra were recorded on Horiba FluoroMax-4 fluorospectroscopy at concentrations below 0.1 O.D. unless otherwise indicated. Quantum Yields were measured on the Quantum φ Integrating Sphere accessory to the FluoroMax-4, while lifetime measurements were determined through the Time-Correlation Single Photon Counting (TCSPC) accessory to the FluroMax-4. TCSPC was utilized in conjunction with NanoLED pulsed diode light source with peak excitation wavelength at 352 nm and at 10,000 counts peak preset. Emission was collected at the fluorescence λmax, unless otherwise indicated. For all pH-dependence experiments, sample pH was adjusted with sulfuric acid or sodium hydroxide. For all chloride-dependent quenching experiments, magnesium chloride hexahydrate (Sigma Aldrich) was used.

SMILES | Shifting (emission shifting with excitation wavelength)
O=C(O)CN1C(=O)C=C(C(=O)O)CC1=O [CA-Gly] | Yes
NCCN1C(=O)C=C(C(=O)O)CC1=O [CA-EDA] | Yes

same assay, conditions: Table III

SMILES | Φ (quantum yield) [%] | λem (maximum emission wavelength) [nm] | λex (maximum excitation wavelength) [nm] | ϵ (extinction coefficiency) [M⁻¹ cm⁻¹]
CCCCCCCN1C(=O)C=C(C(=O)O)CC1=O [CA-Heptylamine] | 13.5 | 424 | 356 | 4.7
O=C(O)C1=CC(=O)N(c2ccc(S)cc2)C(=O)C1 [CA-4-Aminothiolphenol] | 14.1 | 437 | 396 | 19.6
O=C(O)c1cc(=O)n2c(c1)sc1ccccc12 [CA-2-Aminothiolphenol] | 98.5 | 439 | 396 | 877.8
N=C(N)NCCCC(C(=O)O)N1C(=O)C=C(C(=O)O)CC1=O (stereo not shown) [CA-Arginine] | 15.5 | 451 | 382 | 11.6
CC1(C)Sc2cc(C(=O)O)cc(=O)n2C1C(=O)O (stereo not shown) [CA-Penicillamine] | 80.6 | 432 | 369 | 3180
CC1Oc2cc(C(=O)O)cc(=O)n2C1C(=O)O (stereo not shown) [CA-Threonine] | 78.6 | 436 | 386 | 418
NC(CSSCC(C(=O)O)N1C(=O)C=C(C(=O)O)CC1=O)C(=O)O (stereo not shown) [CA-Cystine] | 15 | 430 | 367 | 11.6
O=C(O)C1=CC(=O)N(C(Cc2ccccc2)C(=O)O)C(=O)C1 (stereo not shown) [CA-Phenylalanine] | 12.7 | 423 | 358 | 7.8
O=C(O)C1=CC(=O)N(C(CC2=c3ccccc3=NC2)C(=O)O)C(=O)C1 (stereo not shown) [CA-Tryptophan] | 5 | 445 | 386 | 14.6
O=C(O)C1CC(=O)N(C(CS)C(=O)O)C(=O)C1 (stereo not shown) [TCA-Cysteine] | 54.2 | 431 | 366 | 11.6
O=C(O)c1cc2n(c(=O)c1)C(C(=O)O)CCS2 (stereo not shown) [CA-Homocysteine] | 70.8 | 445 | 375 | 109.2
CC(C(=O)O)N1C(=O)CC(C(=O)O)CC1=O (stereo not shown) [TCA-Alanine] | 0.2 | 423 | 355 | 6.1
CC(C)C(C(=O)O)N1C(=O)C=C(C(=O)O)CC1=O (stereo not shown) [CA-Valine] | 17.5 | 428 | 361 | 5.3
Nc1ccc(N2C(=O)C=C(C(=O)O)CC2=O)cc1 [CA-Phenylenediamine] | 4.5 | 433 | 360 | 12.1

Next, values leading:

Φ (quantum yield) [%] | λem (maximum emission wavelength) [nm] | λex (maximum excitation wavelength) [nm] | ϵ (extinction coefficiency) [M⁻¹ cm⁻¹] | SMILES
23.8 | 440 | 378 | 35.5 | NC(=O)CC(C(=O)O)N1C(=O)C=C(C(=O)O)CC1=O (stereo not shown) [CA-Asparagine]
42.1 | 419 | 368 | 34.6 | O=C(O)C1=CC(=O)N(CCO)C(=O)C1 [CA-ethanolamine]
8.8 | 423 | 359 | 6.2 | CC(C)CC(C(=O)O)N1C(=O)C=C(C(=O)O)CC1=O (stereo not shown) [CA-Leucine]
11.5 | 426 | 357 | 9.4 | NCCCCCCN1C(=O)C=C(C(=O)O)CC1=O [CA-Hexamethylenediamine]
9.1 | 423 | 358 | 5.1 | O=C(O)CCC(C(=O)O)N1C(=O)C=C(C(=O)O)CC1=O (stereo not shown) [CA-Glutamic Acid]
39.0 | 434 | 357 | 12 | O=C(O)CN1C(=O)C=C(C(=O)O)CC1=O [CA-Gly]
8.6 | 431 | 359 | 11.4 | NCCCCC(C(=O)O)N1C(=O)C=C(C(=O)O)CC1=O (stereo not shown) [CA-Lysine]
9.2 | 440 | 377 | 828.3 | NCCN1C(=O)C=C(C(=O)O)CC1=O [CA-EDA]
4.2 | 440 | 369 | 437.9 | O=C(O)C1=CC(=O)N(C(CO)C(=O)O)C(=O)C1 (stereo not shown) [CA-Serine]
7.3 | 448 | 383 | 102.4 | NC(=O)CCC(C(=O)O)N1C(=O)C=C(C(=O)O)CC1=O (stereo not shown) [CA-Glutamine]
19.7 | 427 | 356 | 6.8 | O=C(O)CC(C(=O)O)N1C(=O)C=C(C(=O)O)CC1=O (stereo not shown) [CA-Aspartic Acid]
17.2 | 430 | 357 | 5.6 | CCC(C)C(C(=O)O)N1C(=O)C=C(C(=O)O)CC1=O (stereo not shown) [CA-Isoleucine]
10.5 | 424 | 362 | 5.3 | CSCCC(C(=O)O)N1C(=O)C=C(C(=O)O)CC1=O (stereo not shown) [CA-Methionine]
22.1 | 422 | 355 | 4.9 | O=C(O)CCCN1C(=O)C=C(C(=O)O)CC1=O [CA-γ-Aminobutyric acid]
8.8 | 430 | 356 | 6.3 | CC(CC(=O)O)N1C(=O)C=C(C(=O)O)CC1=O (stereo not shown) [CA-3-Aminobutanoic Acid]

same assay, conditions: representative CFDs, Table I

SMILES | Max. Em. Wavelength [nm] | Max. Ex. Wavelength [nm] | Quantum Yield [%]
O=C(O)CN1C(=O)C=C(C(=O)O)CC1=O [CA-Gly] | 434 | 357 | 39.0
NCCN1C(=O)C=C(C(=O)O)CC1=O [CA-EDA] | 440 | 377 | 9.2
